Measurements: ChEMBL document CHEMBL1146738, “Synthesis and glucose-6-phosphatase inhibitory activity of (thiouriedo)alkanoic acid esters” (Bioorg Med Chem Lett, 2004)

Target: T1, Glucose-6-phosphatase catalytic subunit 1 (Rattus norvegicus) (UniProt P43428)
T1 sequence (whole entry): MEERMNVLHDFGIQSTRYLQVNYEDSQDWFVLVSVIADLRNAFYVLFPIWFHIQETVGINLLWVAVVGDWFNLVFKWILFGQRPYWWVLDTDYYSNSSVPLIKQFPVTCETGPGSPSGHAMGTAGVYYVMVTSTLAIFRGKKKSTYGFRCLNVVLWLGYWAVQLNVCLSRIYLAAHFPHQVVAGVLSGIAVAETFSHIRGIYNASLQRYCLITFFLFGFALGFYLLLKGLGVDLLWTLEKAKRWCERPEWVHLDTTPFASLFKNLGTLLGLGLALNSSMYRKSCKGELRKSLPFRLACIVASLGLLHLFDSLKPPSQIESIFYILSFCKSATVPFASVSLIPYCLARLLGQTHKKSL
Experiment: In vitro inhibition of glucose-6-phosphatase obtained from rat was determined at 100 uM concentration

SMILES	inhibition [%]
COC(=O)C(Cc1c[nH]c2ccccc12)/N=C(\S)Nc1ccccn1 (stereo not given)	21.5
COC(=O)C(Cc1c[nH]c2ccccc12)/N=C(\S)Nc1ccc(Cl)cn1 (stereo not given)	52.2
COC(=O)C/N=C(\S)Nc1ccc(Cl)cn1	74.6
CCOC(=O)C(Cc1ccccc1)/N=C(\S)Nc1ccccn1 (stereo not given)	29
N/N=C(\S)Nc1ccccn1	38.5
COC(=O)C(C)/N=C(\S)Nc1ccccn1 (stereo not given)	17.7

Results, then the compound that gave them:

inhibition [%]	SMILES
18	CCOC(=O)CC/N=C(\S)Nc1ccccn1
50	CCOC(=O)C(Cc1ccccc1)/N=C(\S)Nc1ccc(Cl)cn1 (stereo not given)
54.4	CCOC(=O)CC/N=C(\S)Nc1ccc(Cl)cn1
20	N=C(N)/N=C(\S)Nc1ccccn1
